Results on six compounds are retold here after paper PMC2760932 (Journal of medicinal chemistry, 2009).

Test [1] deals with human D3 dopamine receptor (Homo sapiens, UniProt P35462). Description: Competition binding, [125I]IABN, HEK 293 cells transfected with human D3. Conditions: for D4/D3: Table 2, ratio of Ki values.
The next test deals with D2 receptor (Homo sapiens, UniProt P14416). Description: D2 binding assay by the contractor.
Another test has as its target dopamine D3 receptor (Homo sapiens, UniProt P35462). Nature of the test: Quinpirole-stimulated mitogenesis assay, D3.

human D3 dopamine receptor, sequence (P35462 whole entry): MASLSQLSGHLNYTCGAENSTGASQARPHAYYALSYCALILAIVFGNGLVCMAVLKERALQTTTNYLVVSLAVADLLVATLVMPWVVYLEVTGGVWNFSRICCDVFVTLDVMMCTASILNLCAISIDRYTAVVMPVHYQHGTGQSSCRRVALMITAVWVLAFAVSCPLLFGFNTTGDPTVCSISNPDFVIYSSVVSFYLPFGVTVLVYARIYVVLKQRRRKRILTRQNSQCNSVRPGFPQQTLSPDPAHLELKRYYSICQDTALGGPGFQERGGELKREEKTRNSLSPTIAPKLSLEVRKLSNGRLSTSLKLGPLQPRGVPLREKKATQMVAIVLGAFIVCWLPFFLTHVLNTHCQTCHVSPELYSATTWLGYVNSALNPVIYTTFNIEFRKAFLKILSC
dopamine D3 receptor, sequence (P35462 whole entry): as above
D2 receptor, sequence (P14416 whole entry): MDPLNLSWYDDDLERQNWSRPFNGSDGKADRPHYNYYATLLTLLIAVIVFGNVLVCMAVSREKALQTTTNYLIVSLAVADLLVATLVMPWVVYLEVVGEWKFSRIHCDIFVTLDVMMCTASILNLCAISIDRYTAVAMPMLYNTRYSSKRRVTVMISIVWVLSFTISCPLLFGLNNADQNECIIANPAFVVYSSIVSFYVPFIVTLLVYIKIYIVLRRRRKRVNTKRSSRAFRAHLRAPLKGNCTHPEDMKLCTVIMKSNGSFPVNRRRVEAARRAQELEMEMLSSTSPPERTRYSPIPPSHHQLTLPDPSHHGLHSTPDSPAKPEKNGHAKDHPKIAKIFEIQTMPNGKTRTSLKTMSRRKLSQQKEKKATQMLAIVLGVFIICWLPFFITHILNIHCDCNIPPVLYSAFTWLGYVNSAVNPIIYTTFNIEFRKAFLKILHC

For the compound `O=C(NCCC(O)CN1CCN(c2cccc(Cl)c2Cl)CC1)c1cc2ccccc2o1` (centres unmarked) [Compound 31, N-(4-(4-(2,3-Dichloro-phenyl)piperazin-1-yl)-3-hydroxybutyl)benzofuran-2-carboxamide], in test [1], the D4/D3 was above 1600.

Broadly, the Ki is the dissociation constant of the complex between target and ligand, obtained from inhibition or displacement. In the case of `COc1ccc2[nH]c(C(=O)NCCC(O)CN3CCN(c4cccc(Cl)c4Cl)CC3)cc2c1` (centres unmarked) [Compound 29, N-(4-(4-(2,3-Dichloro-phenyl)piperazin-1-yl)-3-hydroxybutyl)-5-methoxy-1H-indole-2-carboxamide], the Ki in test [1] is 1 nM; on D2 receptor, above 400 nM.

Regarding `COc1ccccc1N1CCN(CC(O)CCNC(=O)c2cc3cc(F)ccc3[nH]2)CC1` (centres unmarked) [Compound 26, 5-Fluoro-N-(3-hydroxy-4-(4-(2-methoxy-phenyl)piperazin-1-yl)butyl)-1H-indole-2-carboxamide], the “D3 selectivity over D2 receptor mediated mitogenesis” value at dopamine D3 receptor is on record as around 100 fold.

As for `COc1ccccc1N1CCN(CCCCNC(=O)c2cc3cc(I)ccc3o2)CC1` [Compound 14, 5-Iodo-N-(4-(4-(2-methoxy-phenyl)piperazin-1-yl)butyl)benzofuran-2-carboxamide], the “D3 selectivity over D2 (binding)” value in test [1] (from Ki values) was above 100 fold.

With `O=C(NCCC(O)CN1CCN(c2cccc(Cl)c2Cl)CC1)c1cc2cc(I)ccc2o1` (centres unmarked) [Compound 33, N-(4-(4-(2,3-Dichloro-phenyl)piperazin-1-yl)-3-hydroxybutyl)-5-iodobenzofuran-2-carboxamide], in test [1], the D4/D3 was above 1300.

Usually EC50 stands for the concentration at which the effect is half-maximal. In turn, `COc1ccc2[nH]c(C(=O)NCCC(O)CN3CCN(c4ccccc4OC)CC3)cc2c1` (centres unmarked) [Compound 30, N-(3-Hydroxy-4-(4-(2-methoxy-phenyl)piperazin-1-yl)butyl)-5-methoxy-1H-indole-2-carboxamide] gave an EC50 on dopamine D3 receptor of 13.7 nM. Besides, the Ki on D2 receptor is above 400 nM.
